Reference: patent US20260153494A1 (AGRICUL TURAL UNIVERSITY OF ATHENS, priority 2023, published 2026)

Experiments:
[1] = tested on: FGGsh101 (phi class glutathione S-transferase GSTF mutant sh101, derived by DNA shuffling, with N-terminal FGG tag, SEQ ID NO: 1); assay type: biochemical
Description: (§1) GST activity assays were carried by using the 1-chloro-2,4-dinitrobenzene (CDNB)/glutathione (GSH) substrate system as described previously (Axarli et al., 2017; Georgakis et al., 2020). Determination of enzyme activity was conducted using 1 mM CDNB and 2.5 mM GSH final concentration in 0.1 M KH2PO4, PH 6.5 and 37° C. Kinetic analysis of the potential supramolecular protein complexes was performed as previously described (Axarli et al., 2016, Georgakis et al., 2020) five days after addition of CB[8] to the enzyme solution in 1:1 stoichiometry. Protein precipitates were removed by centrifugation at 10,000 rpm for 10 min prior to the analysis. The steady state data were processed using GraphPad Prism version 7 (GraphPad Prism Software, Inc.). Turnover numbers were evaluated for one active site per subunit of enzyme. Specific activity (SA) was estimated in micromoles per minute per milligram of protein (μmol min-1 mg-1). Determination of protein concentration was carried using the Bradford assay with bovine serum albumin as standard (Bradford, 1976).
(§2) The kinetic parameters of FGGsh101 and FGGsh155 were analyzed both in absence of CB[8] and five days after the addition of the macrocyclic host in 1:1 ratio. […] (see Example 3)

[2] = tested on: FGGsh101:CB[8] (FGG-tagged phi class glutathione S-transferase GSTF mutant sh101, SEQ ID NO: 1, with cucurbit[8]uril 1:1); assay type: biochemical
Description: as §1, §2

[3] = tested on: FGGsh155 (phi class glutathione S-transferase GSTF mutant sh155, derived by DNA shuffling, with N-terminal FGG tag, SEQ ID NO: 2); assay type: biochemical
Description: as §1, §2

[4] = tested on: FGGsh155:CB[8] hexamer (FGG-tagged phi class glutathione S-transferase GSTF mutant sh155, SEQ ID NO: 2, with cucurbit[8]uril 1:1); assay type: biochemical
Description: as §1, §2

[5] = tested on: Immobilized FGGsh155:CB[8] hexamer (GSTF mutant sh155, FGG-tagged, SEQ ID NO: 2, with cucurbit[8]uril 1:1, on glutaraldehyde-crosslinked chitosan); assay type: biochemical
Description: Initially, 2%, 3% and 4% (w/v) medium molecular weight chitosan (molecular weight of 190 to 310 kDa) was dissolved by continuous stirring in 2% (v/v) acetic acid. The formed chitosan gels were stored at 4° C. until the following day (12 to 24 hours) in order to remove any trapped air. For the immobilisation, 180 mg of chitosan gel were deposited by a syringe at the bottom of a cuvette with 4 mL capacity. Then 50 μL of different concentrations of GA solution [0.4%, 0.5%, 0.6%, 0.7%, and 1% (v/v)] were added and the mixture was lightly stirred with a pipette tip. The carrier mixture was left for an hour so that the reaction of GA binding to the amino groups of the carrier was accomplished. GA was diluted in 20 mM KH2PO4, PH 7.0. Afterwards, the carrier was washed thrice with 2 mL 20 mM KH2PO4, PH 7, in order to remove any unbound GA molecules. The immobilization of FGGsh155:CB[8] was performed five days after the addition of the CB[8] macrocyclic agent at stoichiometry of 1:1, for uniformity of the experiments. Thus, 600 μL of the enzyme solution with 0.7-0.8 mg/mL concentration were added to the activated chitosan medium. The enzyme was incubated with the carrier at 25° C. overnight with stirring at 50-80 rpm. The following day, the volume of the enzyme solution that wasn't absorbed by the carrier was removed and the carrier was incubated with 600 μL of 2 mg/mL NaBH4 solution for 30 min. This step was conducted in order to stabilize the Schiff's bases that form due to the reaction of GA with the enzyme amino groups (Barbosa et al., 2014). Finally, three washes were performed with 20 mM KH2PO4, PH 7, for the removal of any unbound enzyme. Protein binding efficiency to the carrier (%) and retention of enzyme activity (%) were defined as: […]
Determination of the enzyme activity for the immobilised enzyme complex FGGsh155:CB[8] was performed using the CDNB/GSH substrate system with 20 mM KH2PO4, PH 7, as a reaction solution at 37° C., as has been previously described (Georgakis et al., 2020a; Axarli et al., 2017; Cho et al., 2005). The rate assay was recorded for 300 s at 340 nm.
Kinetic analysis for GSH was performed using standard CDNB concentration (1 mM) and varying GSH concentrations. Correspondingly, standard concentration of GSH substrate (2.5 mM) and varying concentrations of CDNB were utilised in the kinetic analysis for CDNB.
The kinetic parameters of the immobilized FGGsh155:CB[8] were calculated using the CDNB/GSH substrate system in 20 mM KH2PO4, PH 7.0, at 37° C. (FIG. 20) depicts the dependence of the enzyme's reaction rate on the substrate concentration. […] Respectively the kinetic analysis for GSH was carried with standard CDNB concentration (1 mM) and different GSH concentrations. […] The reduction in kcat is usually expected after immobilization (Neira & Herr, 2017).

[6] = Thermal stability (Tm) by differential scanning fluorimetry; assay type: physicochemical; settings: for second distinct melting point Tm2 / increase in Tm1: after addition of CB[8]; for increase in Tm1: versus Tm0, especially 1:1 stoichiometry
Description: The thermostability of FGG-GSTFs, FGGsh101 and FGGsh155 was assessed by differential scanning fluorimetry (DSF) in the presence of the macrocyclic compound CB[8]. CB[8] was added in stoichiometry of 1:1 and 2:1 enzyme to host concentration. The reaction was performed in 50 mM KH2PO4 solution, pH 7.14, using either 15 μM enzyme and 15 μM CB[8] (1:1) or 15 μM enzyme and 7.5 μM CB[8] (2:1). A “control” reaction for each ratio was also measured, where only CB[8]'s solvent of was added to the enzyme. Differential scanning fluorimetry was performed in 20 mM KH2PO4 buffer, pH 7, with 4 μg of protein sample, according to published methods (Huynh & Partch, 2015). Thermal shift assays we carried using a Real-time PCR StepOne™ instrument (Applied Biosystems, USA) and the SYPRO Orange protein dye at a temperature range between 15° C. and 99° C. with a ramping rate of 1%. Temperature of protein denaturation midpoint (Tm) was estimated by the first derivative of the normalized fluorescence data.

[7] = Steady-state kinetic analysis of FGG-GSTFs, CDNB/GSH substrate system; assay type: biochemical; settings: for catalytic constant: enzyme samples with CB[8] in 1:1 stoichiometry; for kcat: free enzyme
Description: as §1
The kinetic parameters of FGGsh101 and FGGsh155 were analyzed both in absence of CB[8] and five days after the addition of the macrocyclic host in 1:1 ratio. This was determined according to the fluorescence intensity monitoring experiments, where the reduction of fluorescence emission appeared to reach a plateau after 4-5 days. (see Example 3)

[8] = Enzyme stability upon storage at 4° C. (retention of activity); assay type: physicochemical; settings: first twenty days
Description: Enzymatic stability was determined as the retention of enzyme activity overtime upon storage at 4° C. for the FGGsh155:CB[8] before and after immobilization, as well as the unmodified form of FGGsh155. Monitoring of the enzyme inactivation was determined using the CDNB/GSH substrate system.

[9] = CDNB/GSH substrate system, pH 6.5, 37° C., one active site per subunit

O=[N+]([O-])c1ccc(Cl)c([N+](=O)[O-])c1 [CDNB, 1-chloro-2,4-dinitrobenzene]
nH (Hill coefficient) ([1]; CDNB variable, pH 6.5, 37° C.): 1.17 ± 0.03 | kcat [1, 9]: 2.657 ± 0.0202 s⁻¹ | kcat/S0.5 CDNB ([1]; pH 6.5, 37° C.): 6625.2 M⁻¹ s⁻¹ | nH (Hill coefficient) ([2]; CDNB variable, five days after CB[8] addition 1:1, pH 6.5, 37° C.): 1.1 ± 0.06 | kcat ([2]; CDNB/GSH substrate system, five days after CB[8] addition 1:1, pH 6.5, 37° C.): 2.248 ± 0.0547 s⁻¹ | kcat/S0.5 CDNB ([2]; five days after CB[8] addition 1:1, pH 6.5, 37° C.): 4014.8 M⁻¹ s⁻¹ | nH (Hill coefficient) ([3]; CDNB variable, pH 6.5, 37° C.): 1.01 ± 0.03 | kcat [3, 9]: 2.807 ± 0.0453 s⁻¹ | kcat/S0.5 CDNB ([3]; pH 6.5, 37° C.): 3645 M⁻¹ s⁻¹ | nH (Hill coefficient) ([4]; free enzyme, CDNB variable, five days after CB[8] addition 1:1, pH 6.5, 37° C.): 1.01 ± 0.02 | kcat ([4]; free enzyme, CDNB/GSH substrate system, five days after CB[8] addition 1:1, pH 6.5, 37° C.): 2.02 ± 0.019 s⁻¹ | S0.5 CDNB ([4]; free enzyme, GSH at fixed concentration, five days after CB[8] addition 1:1, pH 6.5, 37° C.): 0.81 ± 0.05 mM | kcat/S0.5 CDNB ([4]; free enzyme, five days after CB[8] addition 1:1, pH 6.5, 37° C.): 2489.7 M⁻¹ s⁻¹ | kcat/S0.5 CDNB ([5]; 20 mM KH2PO4, pH 7.0, 37° C.): 19 M⁻¹ s⁻¹ | nH (Hill coefficient) ([5]; CDNB variable, GSH 2.5 mM, pH 7.0, 37° C.): 1.47 ± 0.12 | kcat ([5]; CDNB/GSH substrate system, 20 mM KH2PO4, pH 7.0, 37° C.): 0.0213 ± 0.002 s⁻¹

N[C@@H](CCC(=O)N[C@@H](CS)C(=O)NCC(=O)O)C(=O)O [GSH, glutathione]
kcat/Km GSH ([1]; pH 6.5): 1978 M⁻¹ s⁻¹ | Km ([1]; pH 6.5, read-out: Km GSH): 1360 ± 20 µM | kcat/Km GSH ([2]; pH 6.5): 1594 M⁻¹ s⁻¹ | Km ([2]; pH 6.5, read-out: Km GSH): 1410 ± 50 µM | kcat/Km GSH ([3]; pH 6.5): 1896.3 M⁻¹ s⁻¹ | Km ([3]; pH 6.5, read-out: Km GSH): 1480 ± 30 µM | kcat/Km GSH ([4]; pH 6.5): 1410 M⁻¹ s⁻¹ | Km ([4]; pH 6.5, read-out: Km GSH): 1430 ± 30 µM | kcat/Km GSH ([5]; 20 mM KH2PO4, pH 7.0, 37° C.): 16.8 M⁻¹ s⁻¹ | Km ([5]; CDNB 1 mM, 20 mM KH2PO4, pH 7.0, 37° C., read-out: Km GSH): 1260 ± 80 µM

B1: sh101: phi class cytosolic glutathione S-transferase mutant from DNA shuffling, without FGG tag (protein)
chain: MFGGAPVKVFGPAMSTNVARVTLCLEEVGAEYEVVNIDFNTMEHKSPEHLARNPFGQIPAFQDGDLLLWESRAISKYVLRKYKTDEVDLLREGNLKEAAMVDVWTEYDAHTYNPALSPIVYECLINPLMRGLPTNQTVVDESLEKLKKVLEVYEARLSQHKYLAGDFVSFADLNHFPYTFYFMATPHAALFDSYPHVKAWWDRLMARPAVKKIAATMVPPKA
effect of CB[8] addition on Tm of enzyme forms that weren't FGG-tagged ([6]; 1:1 and 2:1, almost ten days): did not induce the appearance of an additional Tm value

B2: FGGsh155: phi class GST mutant sh155 (SEQ ID NO: 2) with N-terminal phenylalanine-glycine-glycine tag; dimer (protein)
chain: MFGGAPVKVFGPAMSTNVARVTLCLEEVGAEYEVVDIDFKAMEHKSPEHLVRNPFGQIPAFQDGDLLLFESRAIAKYVLRKYKTDEVDLLREGNLKEAAMVDVWTEYDAHTYNPALSPIVYECLINPLMRGLPTNQTVVDESLEKLKKVLEVYEARLSQHKYLAGDFVSFADLNHFPYTFYFMATPHAALFDSYPHVKAWWDRLMARPAVKKIAATMVPPKA
modifications: N-terminal FGG tag; dimer
catalytic constant [7]: 121 ± 1.14 min⁻¹ | kcat [7]: 2.807 ± 0.0453 s⁻¹ | second distinct melting point Tm2 [6]: ≈ 85 °C | increase in Tm1 [6]: up to 3.5 °C | retained activity [8]: approximately 50%

B3: FGGsh101: phi class GST mutant sh101 (SEQ ID NO: 1) with N-terminal phenylalanine-glycine-glycine tag; dimer (protein)
chain: MFGGAPVKVFGPAMSTNVARVTLCLEEVGAEYEVVNIDFNTMEHKSPEHLARNPFGQIPAFQDGDLLLWESRAISKYVLRKYKTDEVDLLREGNLKEAAMVDVWTEYDAHTYNPALSPIVYECLINPLMRGLPTNQTVVDESLEKLKKVLEVYEARLSQHKYLAGDFVSFADLNHFPYTFYFMATPHAALFDSYPHVKAWWDRLMARPAVKKIAATMVPPKA
modifications: N-terminal FGG tag; dimer
catalytic constant [7]: 134.9 ± 3.28 min⁻¹ | kcat [7]: 2.657 ± 0.0202 s⁻¹ | second distinct melting point Tm2 [6]: ≈ 85 °C | increase in Tm1 [6]: 1.5-2 °C
